Target: Sodium- and chloride-dependent taurine transporter (Homo sapiens) (UniProt P31641)
Test: taurine transporter SLC6A6 activation, membrane depolarization – cell-based, membrane potential dye, HEK-293, SLC6A6 overexpression, dose response (AID 1794824)
Details: HEK-293 SLC6A6 OE, FLIPR membrane potential dye

Chain of Sodium- and chloride-dependent taurine transporter (Homo sapiens) (P31641 whole entry, looked up): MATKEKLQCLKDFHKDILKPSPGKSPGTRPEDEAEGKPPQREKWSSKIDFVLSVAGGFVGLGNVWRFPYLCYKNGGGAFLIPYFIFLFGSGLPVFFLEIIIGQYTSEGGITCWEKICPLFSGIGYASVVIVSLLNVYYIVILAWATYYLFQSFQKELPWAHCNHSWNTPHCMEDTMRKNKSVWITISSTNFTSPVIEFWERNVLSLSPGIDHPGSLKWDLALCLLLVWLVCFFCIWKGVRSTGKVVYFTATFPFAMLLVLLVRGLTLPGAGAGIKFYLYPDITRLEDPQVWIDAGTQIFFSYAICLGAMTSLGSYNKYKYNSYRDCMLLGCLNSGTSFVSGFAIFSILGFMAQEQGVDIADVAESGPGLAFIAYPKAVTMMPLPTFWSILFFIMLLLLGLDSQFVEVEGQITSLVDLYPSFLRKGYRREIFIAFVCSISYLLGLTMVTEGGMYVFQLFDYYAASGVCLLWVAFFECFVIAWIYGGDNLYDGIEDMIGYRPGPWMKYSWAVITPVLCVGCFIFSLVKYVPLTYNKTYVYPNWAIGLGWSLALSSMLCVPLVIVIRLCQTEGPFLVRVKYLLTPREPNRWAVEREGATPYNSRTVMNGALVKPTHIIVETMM

EC50 | SMILES
10 µM | NCCS(=O)(=O)O
354 µM | NCCCC(=O)O
